# Laboratory results: US7888329B2, “Substituted aryl piperidinylalkynyladenosines as A2AR agonists” (PGxHealth, LLC, priority 2006, dated 2011)
# Like-named read-outs stand apart in the source and are kept apart here.
# What was measured:
# [1] = target: T1, recombinant human A2A receptors (Homo sapiens, UniProt P29274); test: Radioligand competition binding with 125I-APE or 125I-ZM241385, Sf9 cell membranes; settings: 125I-APE or 125I-ZM241385, Sf9 membranes
# T1 construct: expressed in transfected cells; host or cells: Sf9 insect cells infected with virus; membranes
# T1 sequence (P29274 whole entry): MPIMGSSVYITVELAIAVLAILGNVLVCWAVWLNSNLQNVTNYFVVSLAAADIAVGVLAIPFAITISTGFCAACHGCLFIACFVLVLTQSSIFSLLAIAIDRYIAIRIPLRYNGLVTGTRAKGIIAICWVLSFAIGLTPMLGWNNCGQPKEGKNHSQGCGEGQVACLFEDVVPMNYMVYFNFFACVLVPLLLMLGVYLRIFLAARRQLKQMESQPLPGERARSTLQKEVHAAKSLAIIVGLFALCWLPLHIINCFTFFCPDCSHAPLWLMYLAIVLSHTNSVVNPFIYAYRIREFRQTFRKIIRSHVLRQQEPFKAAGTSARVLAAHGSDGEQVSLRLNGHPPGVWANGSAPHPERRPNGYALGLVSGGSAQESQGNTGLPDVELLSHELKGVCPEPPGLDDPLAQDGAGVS
# Method in brief: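 Membranes (5 μg for A2A; 25 μg for A1) incubated with radioligand at room temperature, 3 h for agonists or 2 h for antagonists, in HE buffer with 1 U/mL adenosine deaminase and 5 mM MgCl2, ± 50 μM GTPγS. Assays ended by filtration; nonspecific binding defined with 50 μM NECA.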
# [2] = tested on: Purified human neutrophils; test: Luminol enhanced chemiluminescence (neutrophil oxidative activity), fMLP stimulated; type: cell-based; settings: read-out: Functional
# human A1 AR = target: T2, human A1 AR (Homo sapiens, UniProt P30542); test: Radioligand competition binding with 125I-ABA, membranes of CHO K1 cells stably expressing the receptor
# T2 construct: expressed in transfected cells; membranes
# T2 sequence (P30542 1-326): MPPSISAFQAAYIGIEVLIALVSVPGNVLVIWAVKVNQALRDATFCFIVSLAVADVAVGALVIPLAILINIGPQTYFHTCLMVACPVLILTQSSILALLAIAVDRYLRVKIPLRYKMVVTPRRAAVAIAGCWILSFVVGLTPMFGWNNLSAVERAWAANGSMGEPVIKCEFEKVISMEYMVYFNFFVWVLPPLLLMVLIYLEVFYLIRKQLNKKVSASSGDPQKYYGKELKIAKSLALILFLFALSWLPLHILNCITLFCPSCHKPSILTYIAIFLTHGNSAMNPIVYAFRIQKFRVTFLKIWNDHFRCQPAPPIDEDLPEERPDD
# human A3 AR = target: T3, human A3 AR (Homo sapiens, UniProt P0DMS8); test: Radioligand competition binding with 125I-ABA, membranes of HEK 293 cells stably expressing the receptor
# T3 construct: expressed in transfected cells; membranes
# T3 sequence (P0DMS8 1-318): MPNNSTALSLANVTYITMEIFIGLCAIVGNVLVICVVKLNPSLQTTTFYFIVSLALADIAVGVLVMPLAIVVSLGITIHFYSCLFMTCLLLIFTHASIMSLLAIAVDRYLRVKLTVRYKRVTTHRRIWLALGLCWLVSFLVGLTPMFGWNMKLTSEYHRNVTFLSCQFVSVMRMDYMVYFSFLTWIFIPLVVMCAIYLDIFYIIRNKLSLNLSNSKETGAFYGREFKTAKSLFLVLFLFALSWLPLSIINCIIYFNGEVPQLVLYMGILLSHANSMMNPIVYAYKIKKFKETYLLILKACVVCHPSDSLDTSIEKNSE
# Method in brief: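 Triplicate binding with 25 μg membrane protein and 0.5-1 nM agonist radioligand in HE buffer with 1 U/mL adenosine deaminase and 5 mM MgCl2, ±50 μM GTPγS, 3 h at room temperature, then filtration. Nonspecific binding with 50 μM NECA; Ki from IC50 corrected for radioligand and competitor depletion.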
# [3] = Ki derived from IC50, class symbols
Compound,Ki ([1]; class symbols) [nM],"EC50 ([2]; Homo sapiens, Neutrophil) [nM]",Ki (human A1 AR; [3]) [nM],Ki (human A3 AR; [3]) [nM],"EC50 ([2]; EC50 of peak chemiluminescence, human PMN, rolipram 100 nM, fMLP, three donors, class symbols) [nM]",Ki ([1]; Ki derived from IC50) [nM],Ki (human A1 AR; Ki derived from IC50) [nM],Ki (human A3 AR; Ki derived from IC50) [nM]
"COc1ccccc1OC(=O)N1CCC(CC#Cc2nc(N)c3ncn([C@@H]4O[C@H](C(=O)NC5CC5)C(O)[C@@H]4O)c3n2)CC1 (stereo partly shown) [Compound 21, N-Cyclopropyl 2-{3-[1-(2-methoxyphenyloxycarbonyl)-4-piperidinyl]-1-propyn-1-yl}adenosine-5′-uronamide]",< 1,< 10,< 100,< 100,,,,
"Nc1nc(C#CCC2CCN(C(=O)Oc3ccccc3Cl)CC2)nc2c1ncn2[C@@H]1O[C@H](CO)[C@@H](O)[C@H]1O [Compound 35, 2-{3-[1-((2-Chloro)phenoxycarbanoyl)piperidin-4-yl]propyn-1-yl}adenosine]",< 1,< 10,< 100,< 100,,,,
"CCNC(=O)[C@H]1O[C@@H](n2cnc3c(N)nc(C#CCC4CCN(C(=O)Oc5ccc(Cl)c(Cl)c5)CC4)nc32)[C@@H](O)C1O (stereo partly shown) [Compound 49, N-Ethyl 2-{3-[1-(3,4-dichlorophenoxycarbonyl)-4-piperidinyl]-1-propyn-1-yl}adenosine-5′-uronamide]",< 1,< 1,< 100,< 10,,,,
"Nc1nc(C#CCC2CCN(C(=O)OCc3ccccc3)CC2)nc2c1ncn2[C@@H]1O[C@H](C(=O)NC2CC2)C(O)[C@@H]1O (stereo partly shown) [Compound 2, N-Cyclopropyl 2-{3-[1-(benzyloxycarbonyl)-4-piperidinyl]-1-propyn-1-yl}adenosine-5′-uronamide, reference compound]",< 1,< 1,< 100,< 100,,,,
"CCNC(=O)[C@H]1O[C@@H](n2cnc3c(N)nc(C#CCC4CCN(C(=O)Oc5ccc(F)cc5)CC4)nc32)[C@@H](O)C1O (stereo partly shown) [Compound 24, N-Ethyl 2-{3-[1-(4-fluorophenyloxycarbonyl)-4-piperidinyl]-1-propyn-1-yl}adenosine-5′-uronamide]",< 1,< 1,< 100,< 10,,,,
"CCNC(=O)[C@H]1O[C@@H](n2cnc3c(N)nc(C#CCC4CCN(C(=O)Oc5ccc(F)c(F)c5)CC4)nc32)[C@@H](O)C1O (stereo partly shown) [Compound 50, N-Ethyl 2-{3-[1-(3,4-difluorophenoxycarbonyl)-4-piperidinyl]-1-propyn-1-yl}adenosine-5′-uronamide]",< 1,< 1,< 100,< 100,,,,
"Cc1ccc(OC(=O)N2CCC(CC#Cc3nc(N)c4ncn([C@@H]5O[C@H](CO)[C@@H](O)[C@H]5O)c4n3)CC2)cc1C [Compound 53, 2-{3-[1-((3,4-Dimethyl)phenoxycarbanoyl)piperidin-4-yl]propyn-1-yl}adenosine]",< 1,< 10,< 100,< 100,,,,
Nc1nc(C#CCC2CCN(C(=O)Nc3ccc(F)cc3)CC2)nc2c1ncn2[C@@H]1O[C@H](CO)C(O)[C@@H]1O (stereo partly shown) [Compound 44],< 10,> 100,< 100,< 100,,,,
"CCNC(=O)[C@H]1O[C@@H](n2cnc3c(N)nc(C#CCC4CCN(C(=O)Oc5ccc(C(=O)OC)cc5)CC4)nc32)[C@@H](O)C1O (stereo partly shown) [Compound 25, N-Ethyl 2-{3-[1-(4-methoxycarboxyphenyloxycarbonyl)-4-piperidinyl]-1-propyn-1-yl}adenosine-5′-uronamide]",< 10,< 10,> 100,< 100,,,,
N-Cyclopropyl 2-{3-[1-((4-amino)benzyloxycarbanoyl)-4-piperidinyl]propyn-1-yl}adenosine-5′-uronamide [Compound 48],< 10,,> 100,> 100,< 10,,,
"Nc1nc(C#CCC2CCN(C(=O)Oc3cccc(C(F)(F)F)c3)CC2)nc2c1ncn2[C@@H]1O[C@H](CO)C(O)[C@@H]1O (stereo partly shown) [Compound 6, 2-{3-[1-((3-Trifluoromethyl)phenoxycarbonyl)piperidin-4-yl]propyn-1-yl}adenosine]",< 1,< 10,< 100,< 10,,,,
"Nc1nc(C#CCC2CCN(C(=O)Oc3ccc([N+](=O)[O-])cc3)CC2)nc2c1ncn2[C@@H]1O[C@H](CO)[C@@H](O)[C@H]1O [Compound 12, 2-{3-[1-((4-Nitrophenoxy)carbonyl)piperidin-4-yl]propyn-1-yl}adenosine]",< 1,< 1,< 100,< 100,,,,
"Nc1nc(C#CCC2CCN(C(=O)Oc3ccccc3)CC2)nc2c1ncn2[C@@H]1O[C@H](C(=O)NC2CC2)C(O)[C@@H]1O (stereo partly shown) [Compound 1, N-Cyclopropyl 2-{3-[1-(phenyloxycarbonyl)-4-piperidinyl]-1-propyn-1-yl}adenosine-5′-uronamide, reference compound]",,0.56,,,,0.563,34.7,34.1
"Nc1nc(C#CCC2CCN(C(=O)Oc3ccc(Br)cc3Br)CC2)nc2c1ncn2[C@@H]1O[C@H](C(=O)NC2CC2)C(O)[C@@H]1O (stereo partly shown) [Compound 57, N-Cyclopropyl 2-{3-[1-(2,4-bromophenoxycarbonyl)-4-piperidinyl]-1-propyn-1-yl}adenosine-5′-uronamide]",< 1,< 10,< 100,< 100,,,,
"Nc1nc(C#CCC2CCN(C(=O)Oc3ccc(Cl)cc3)CC2)nc2c1ncn2[C@@H]1O[C@H](C(=O)NC2CC2)C(O)[C@@H]1O (stereo partly shown) [Compound 17, N-Cyclopropyl 2-{3-[1-(4-chlorophenoxycarbonyl)-4-piperidinyl]-1-propyn-1-yl}adenosine-5′-uronamide]",< 1,< 1,< 100,< 100,,,,
"COc1ccccc1OC(=O)N1CCC(CC#Cc2nc(N)c3ncn([C@@H]4O[C@H](CO)[C@@H](O)[C@H]4O)c3n2)CC1 [Compound 36, 2-{3-[1-((2-Methoxy)phenoxycarbanoyl)piperidin-4-yl]propyn-1-yl}adenosine]",< 1,< 10,< 100,< 100,,,,
"Nc1nc(C#CCC2CCN(C(=O)Oc3ccc(F)c(F)c3)CC2)nc2c1ncn2[C@@H]1O[C@H](C(=O)NC2CC2)C(O)[C@@H]1O (stereo partly shown) [Compound 52, N-Cyclopropyl 2-{3-[1-(3,4-fluorophenoxycarbonyl)-4-piperidinyl]-1-propyn-1-yl}adenosine-5′-uronamide]",< 1,< 1,< 100,< 100,,,,
"COC(=O)c1ccc(OC(=O)N2CCC(CC#Cc3nc(N)c4ncn([C@@H]5O[C@H](C(=O)NC6CC6)C(O)[C@@H]5O)c4n3)CC2)cc1 (stereo partly shown) [Compound 9, N-Cyclopropyl 2-{3-[1-(4-methoxycarbonylphenoxycarbanoyl)-4-piperidinyl]-1-propyn-1-yl}adenosine-5′-uronamide]",< 1,< 10,< 100,< 100,,,,
"Nc1nc(C#CCC2CCN(C(=O)Nc3cccc(Cl)c3)CC2)nc2c1ncn2[C@@H]1O[C@H](C(=O)NC2CC2)C(O)[C@@H]1O (stereo partly shown) [Compound 43, N-Cyclopropyl 2-{3-[1-(3-chlorophenyloxycarboxymidyl)-4-piperidinyl]-1-propyn-1-yl}adenosine-5′-uronamide]",< 10,< 100,< 100,> 100,,,,
